The values below come from patent US10307425B2, “Compositions and methods for treating toxoplasmosis, cryptosporidiosis and other apicomplexan protozoan related diseases” (UNIVERSITY OF WASHINGTON, priority 2015, dated 2019).

≈ marks a conversion by molar mass, not a printed value. Like-named read-outs stand apart in the source and are kept apart here. Where only a bound is given, the exact number is not on record here.

One data set deals with S. neurona merozoites. Nature of the data set: S. neurona growth assay (yellow fluorescent protein-expressing clone). As to conditions: Sarcocystis neurona, read-out: S. neurona EC50.
The next data set relates to SnCDPK1. Nature of the data set: Recombinant SnCDPK1 inhibition. The class given is biochemical, Sarcocystis neurona.
The test system of data set [1] is N. caninum. Nature of the data set: Treatment of non-pregnant and pregnant Balb/c mice infected with N. caninum. The class given is in vivo, Neospora caninum.
For data set [2], the system named is N. caninum. As to the kind of experiment: N. caninum in vitro cultures. Format: cell-based, Neospora caninum.
For the next data set, the system named is Besnoitia besnoiti. As to the kind of experiment: Besnoitia besnoiti in vitro activity. The class given is cell-based.
The next data set has as its target BbCDPK1 (Besnoitia besnoiti, UniProt A0A290U7L2). As to the kind of experiment: BbCDPK1 inhibition. Format: biochemical.
The next data set can be described thus: in vivo. Conditions: BALB/c, mouse, po, 10 mg/kg.
The conditions of data set [3]: pH 6.5.
The next data set can be described thus: physchem. Conditions: water, pH 6.5, aqueous buffer.
A further data set deals with TgCDPK1 (Toxoplasma gondii, UniProt Q9BJF5). As to the kind of experiment: biochemical.
The nature of data set [4]: Rat PK following IV and PO dosing. As to conditions: rats, PO vs IV.

TgCDPK1, sequence (Q9BJF5 1-507): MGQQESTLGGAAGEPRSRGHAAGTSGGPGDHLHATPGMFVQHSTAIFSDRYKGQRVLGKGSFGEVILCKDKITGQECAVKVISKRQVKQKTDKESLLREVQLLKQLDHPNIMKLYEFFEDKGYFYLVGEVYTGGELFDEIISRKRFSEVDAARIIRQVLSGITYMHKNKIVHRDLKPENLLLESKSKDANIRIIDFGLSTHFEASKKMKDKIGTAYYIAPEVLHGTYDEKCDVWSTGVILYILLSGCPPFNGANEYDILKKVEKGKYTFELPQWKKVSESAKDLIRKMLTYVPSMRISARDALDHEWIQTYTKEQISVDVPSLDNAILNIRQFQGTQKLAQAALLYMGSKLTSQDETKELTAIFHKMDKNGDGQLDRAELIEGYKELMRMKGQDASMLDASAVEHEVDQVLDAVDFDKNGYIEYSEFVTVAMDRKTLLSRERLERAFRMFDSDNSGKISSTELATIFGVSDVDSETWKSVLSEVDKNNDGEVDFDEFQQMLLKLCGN
BbCDPK1, sequence (A0A290U7L2 1-497): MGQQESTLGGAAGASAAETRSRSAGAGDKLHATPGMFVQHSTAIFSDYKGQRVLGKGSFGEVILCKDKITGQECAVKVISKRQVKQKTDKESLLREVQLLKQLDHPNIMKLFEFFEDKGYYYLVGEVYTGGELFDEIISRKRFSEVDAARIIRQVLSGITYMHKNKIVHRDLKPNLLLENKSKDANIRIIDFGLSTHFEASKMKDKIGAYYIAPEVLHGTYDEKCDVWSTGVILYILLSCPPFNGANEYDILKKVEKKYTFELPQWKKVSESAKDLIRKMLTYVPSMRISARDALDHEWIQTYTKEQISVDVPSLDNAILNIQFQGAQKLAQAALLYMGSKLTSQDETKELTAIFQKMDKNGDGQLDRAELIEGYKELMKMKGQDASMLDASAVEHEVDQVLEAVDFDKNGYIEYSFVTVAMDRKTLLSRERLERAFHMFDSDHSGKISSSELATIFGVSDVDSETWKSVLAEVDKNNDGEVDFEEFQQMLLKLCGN

As for `Nc1ncnc2c1c(-c1ccc3nccnc3c1)nn2CC1CCNCC1`, the EC50 in the data set on S. neurona merozoites is more than 10000 nM. Also, the IC50 in the data set on SnCDPK1 is more than 2000 nM.

As to `CCOc1ccc2cc(-c3nn(CC4CCN(C)CC4)c4ncnc(N)c34)ccc2c1` [Compound 150], the “treatment of N. caninum infected mice” value in the data set with N. caninum [1] is “treats infected mice and rids of N. caninum infection in brain and fetuses”. The “activity against N. caninum in vitro” value with N. caninum [2] is reported as “effective in treating N. caninum in vitro”. The “B. besnoiti EC100” value with Besnoitia besnoiti came to 2.580 µM. For the same compound, the EC50 in the data set on Besnoitia besnoiti (Besnoitia besnoiti, read-out: B. besnoiti EC50) amounted to 45 nM; in the data set with S. neurona merozoites, 68 nM. The figures for the IC50 in the data set on SnCDPK1 and against BbCDPK1 were 5.9 nM and 4 nM, respectively. For the same compound, the Cmax in the data set “in vivo” was found to be 750 ± 150 nM.

The compound `Nc1ncnc2c1c(-c1ccc3nc(OC4CC4)ccc3c1)nn2CC1CCOCC1` [Example 22, 3-(2-Cyclopropoxyquinolin-6-yl)-1-((tetrahydro-2H-pyran-4-yl)methyl)-1H-pyrazolo[3,4-d]pyrimidin-4-amine] came in with a Solubility in [3] of 17 µM (≈ 7.08 µg/mL). In addition, in “in vivo” (female), the highest concentration (Cmax) was 880 ± 230 nM and the Tmax is 30 min.

For the compound `CC(C)(O)Cn1nc(-c2ccc3nc(OC4CC4)ccc3c2)c2c(N)ncnc21` [Example 25, 1-(4-Amino-3-(2-cyclopropoxyquinolin-6-yl)-1H-pyrazolo[3,4-d]pyrimidin-1-yl)-2-methylpropan-2-ol], the EC50 in the data set on S. neurona merozoites stood at 128 nM. Also, the IC50 in the data set on SnCDPK1 was 7.5 nM.

Regarding `CC(C)(CO)Cn1nc(-c2ccc3cc(OC4CC4)ccc3c2)c2c(N)ncnc21` [Example 26, 3-(4-Amino-3-(6-cyclopropoxynaphthalen-2-yl)-1H-pyrazolo[3,4-d]pyrimidin-1-yl)-2,2-dimethylpropan-1-ol], the Solubility in data set [3] is 6.2 µM (≈ 2.5 µg/mL). Also, the Cmax in “in vivo” (female) came to 390 ± 160 nM.

`COc1ccc2cc(-c3nn(CC4CCOCC4)c4ncnc(N)c34)ccc2n1` [Example 27, 3-(2-methoxyquinolin-6-yl)-1-((tetrahydro-2H-pyran-4-yl)methyl)-1H-pyrazolo[3,4-d]pyrimidin-4-amine]: the Solubility in the data set “physchem” stood at 8 µM (≈ 3.12 µg/mL). This compound also showed an IC50 against TgCDPK1 of 21.2 nM. Further, in the data set “in vivo” (female), the highest level (Cmax) was 3900 ± 1100 nM, the Tmax is 30 min and the half-life is 41 ± 21 min.

`CC(C)Cn1nc(-c2ccc3cc(OCC(C)(C)O)ccc3c2)c2c(N)ncnc21` [Example 33, 1-(6-(4-amino-1-isobutyl-1H-pyrazolo[3,4-d]pyrimidin-3-yl)naphthalen-2-yloxy)-2-methylpropan-2-ol]: on TgCDPK1, inhibition was half-maximal at 5.7 nM (IC50). The “bioavailability (in words)” value in data set [4] is “essentially complete bioavailability”.

On TgCDPK1, `N#CC1(Cn2nc(-c3ccc4cc(OC(F)F)ccc4c3)c3c(N)ncnc32)CCNCC1` [Example 100, 4-((4-amino-3-(6-(difluoromethoxy)naphthalen-2-yl)-1H-pyrazolo[3,4-d]pyrimidin-1-yl)methyl)piperidine-4-carbonitrile] displayed an IC50 of 2.5 nM.

The compound `Nc1ncnc2c1c(-c1ccc3nc(OC4CC4)ccc3c1)nn2CC1(O)CNC1` [Example 101, 3-((4-amino-3-(2-cyclopropoxyquinolin-6-yl)-1H-pyrazolo[3,4-d]pyrimidin-1-yl)methyl)azetidin-3-ol] yielded an IC50 at TgCDPK1 of 3 nM.

As for `CN1CCC(C#N)(Cn2nc(-c3ccc4cc(OC(F)F)ccc4c3)c3c(N)ncnc32)CC1` [Example 102, 4-((4-amino-3-(6-(difluoromethoxy)naphthalen-2-yl)-1H-pyrazolo[3,4-d]pyrimidin-1-yl)methyl)-1-methylpiperidine-4-carbonitrile], at TgCDPK1, the IC50 came to 18.2 nM.

Turning to `CN1CC(O)(Cn2nc(-c3ccc4nc(OC5CC5)ccc4c3)c3c(N)ncnc32)C1` [Example 103, 3-((4-amino-3-(2-cyclopropoxyquinolin-6-yl)-1H-pyrazolo[3,4-d]pyrimidin-1-yl)methyl)-1-methylazetidin-3-ol], at TgCDPK1, the IC50 is 4.8 nM.

Regarding `CCOc1ccc2cc(-c3nn(C(C)C)c4ncnc(N)c34)ccc2n1` [Example 106, 3-(2-ethoxyquinolin-6-yl)-1-isopropyl-1H-pyrazolo[3,4-d]pyrimidin-4-amine], the IC50 against TgCDPK1 was 2 nM.

Turning to `CCOc1ccc2cc(-c3nc(CC4CCNCC4)n4ccnc(N)c34)ccc2c1` [Example 114, 1-(6-ethoxynaphthalen-2-yl)-3-(piperidin-4-ylmethyl)imidazo[1,5-a]pyrazin-8-amine], the IC50 against TgCDPK1 came out at 10 nM.

Consider `CCOc1ccc2cc(-c3nc(CC4CCN(C)CC4)n4ccnc(N)c34)ccc2c1` [Example 115, 1-(6-ethoxynaphthalen-2-yl)-3-((1-methylpiperidin-4-yl)methyl)imidazo[1,5-a]pyrazin-8-amine], for which inhibition on TgCDPK1 was half-maximal at 18.6 nM (IC50).

`CC(C)n1nc(-c2ccc3cc(OC4COC4)ccc3c2)c2c(N)ncnc21` [Example 116, 1-isopropyl-3-(6-(oxetan-3-yloxy)naphthalen-2-yl)-1H-pyrazolo[3,4-d]pyrimidin-4-amine] gave an IC50 against TgCDPK1 of 6.1 nM.

Consider `CC(C)n1nc(-c2ccc3cc(OCC(C)(C)O)ccc3c2)c2c(N)ncnc21` [Example 117, 1-((6-(4-amino-1-isopropyl-1H-pyrazolo[3,4-d]pyrimidin-3-yl)naphthalen-2-yl)oxy)-2-methylpropan-2-ol], for which the IC50 against TgCDPK1 was 3 nM.

The compound `CC(C)n1nc(-c2ccc3cc(OCCO)ccc3c2)c2c(N)ncnc21` [Example 118, 2-((6-(4-amino-1-isopropyl-1H-pyrazolo[3,4-d]pyrimidin-3-yl)naphthalen-2-yl)oxy)ethan-1-ol] came in with an IC50 against TgCDPK1 of 6.2 nM.
